We go through 17 compounds from patent US11547704B2, “Chemical compounds” (GlaxoSmithKline Intellectual Property Development Limited, priority 2016, dated 2023).

pIC50: −log10 of the molar value. Some results are limits rather than exact numbers.

The test concerns ATF4 translation. The test can be described thus: ATF4 cell based assay (ATF4 reporter assay, NanoLuc luciferase fused to 5'-UTR of ATF4). To be noted: SH-SY5Y-ATF4-NanoLuc cells challenged with Thapsigargin for 14-18 hours; average of a set of two or more experimental runs; read-out: average ATF4 pathway inhibitory activity (IC50). The text has this: The ATF4 reporter assay measures the effect of Thapsigargin induced cellular stress on ATF4 expression. For this reporter assay, a stable cell line was created by transfecting SH-SY5Y cells with a plasmid containing the NanoLuc® luciferase gene fused to the 5′-UTR of ATF4, under the control of the CMV promoter. The ATF4 5′-UTR contains two open reading frames which mediate the cellular stress-dependent translation of the reporter gene. Clones stably expressing the reporter construct were isolated and selected based on the luminescence response to thapsigargin and inhibition of this signal by test compounds. Briefly, SH-SY5Y-ATF4-NanoLuc cells were challenged with Thapsigargin for 14-18 hours to determine the stress effect with or without test compounds. Cells were propagated in growth media consisting of 90% DMEM F12 (InVitrogen #11320-033), 10% Fetal Bovine Serum (Gibco #10438-026), 5 mM Glutamax (Gibco #35050-061), 5 mM Hopes, (Gibco #15630-080), and 0.5 mg/ml Geneticin (Gibco #10131-027). Cells were prepared for the assay by removing all media from cells, washing the plated cells with phosphate buffered saline, and detached by adding a solution comprised of 10% Tryple express solution (InVitrogen 12604-021) and 90% enzyme-free cell dissociation buffer HANKS base (Gibco 13150-016). The trypsin was deactivated by adding assay media comprised of 90% phenol-red free DMEM F12 (InVitrogen, 11039), 10% Fetal Bovine Serum (Gibco #10438-026), (5 mM Glutamax (Gibco #35050-061), mM Hopes, (Gibco #15630-080), and 0.5 mg/ml Geneticin (Gibco #10131-027). Suspended cells were spun down at 300 g for 5 min, the supernatant was removed and the cell pellet was suspended in warm media (30-37° C.) comprised as above at (1e6 cell/ml). Assay plates were prepared by adding 250 nL of compound stock solution in 100% DMSO to each well, followed by dispensing 20 microliters/well cell suspension to deliver 15-20 k cell/well. Cells were incubated for 1 hour at 37° C. Then, 5 μL of 1.5 μM or 1 μM of Thapsigargin (final concentration: 200-300 nM) was added to each well of cells. Assay plates containing cells were incubated for 14-18 hours at 37° C. The measurement of luciferase produced by the ATF4 constructs was measured as follows. Aliquots of the Nano-Glo reagent (Nano-Glo® Luciferase Assay Substrate, Promega, N113, Nano-Glo® Luciferase Assay Buffer, Promega, N112 (parts of Nano-Glo® Luciferase Assay System, N1150) were brought to room temperature, the substrate and buffer were mixed according to manufacturer's instructions. The cell plates were equilibrated to room temperature. 25microliters/well of the mixed Nano-Glo reagent were dispensed into assay wells and pulse spun to settle contents and the plate was sealed with film. The plates were incubated at room temperature for 1 hour before detecting luminescence on an Envision plate reader.
Background: A reporter such as luciferase makes a cellular process visible.
Turning to `O=C(COc1ccc(Cl)cc1)NC1CCN(CCCOc2ccc(Cl)cc2)CC1` [Example 2, 2-(4-chlorophenoxy)-N-(1-(3-(4-chlorophenoxy)propyl)piperidin-4-yl)acetamide], the pIC50 (as a rule, the negative decadic logarithm of the IC50, by convention in mol/L) is greater than 5.40.
For `O=C(COc1ccc(Cl)cc1)NC1CCN(CC(O)COc2ccc(Cl)cc2)CC1` (centres unmarked) [Example 11, 2-(4-chlorophenoxy)-N-(1-(3-(4-chlorophenoxy)-2-hydroxypropyl)piperidin-4-yl)acetamide], the pIC50 is 7.49.
As to `O=C(COc1ccc(Cl)cc1)NC1CCN(CCCOc2ccc(Cl)nc2)CC1` [Example 17, 2-(4-chlorophenoxy)-N-(1-(3-((6-chloropyridin-3-yl)oxy)propyl)piperidin-4-yl)acetamide], the pIC50 was 7.11.
On to `O=C(NCCc1ccc(Cl)cc1)C1CCN(C(=O)COc2ccc(Cl)cc2)CC1` [Example 24, N-(4-chlorophenethyl)-1-(2-(4-chlorophenoxy)acetyl)piperidine-4-carboxamide], for which the pIC50 was 6.70.
Take `O=C(COc1ccc(Cl)cc1)NC1CCCN(C(=O)COc2ccc(Cl)cc2)C1` (centres unmarked) [Example 27, 2-(4-chlorophenoxy)-N-(1-(2-(4-chlorophenoxy)acetyl)piperidin-3-yl)acetamide]: the pIC50 is less than 6.00.
With `O=C(COc1ccc(Cl)cc1)NCCC1CCCN(C(=O)COc2ccc(Cl)cc2)C1` (centres unmarked) [Example 28, 2-(4-chlorophenoxy)-N-(2-(1-(2-(4-chlorophenoxy)acetyl)piperidin-3-yl)ethyl)acetamide], the pIC50 was greater than 6.00.
As for `O=C(COc1ccc(Cl)nc1)NCC1CCCN(C(=O)COc2ccc(Cl)cc2)C1` (centres unmarked) [Example 29, N-((1-(2-(4-chlorophenoxy)acetyl)piperidin-3-yl)methyl)-2-((6-chloropyridin-3-yl)oxy)acetamide], the figure is less than 6.00.
Consider `O=C(COc1ccc(Cl)cc1)NC1CCN(C(=O)COc2ccc(Cl)cc2)CC1F` (centres unmarked) [Example 30, 2-(4-chlorophenoxy)-N-(1-(2-(4-chlorophenoxy)acetyl)-3-fluoropiperidin-4-yl)acetamide], for which the negative-log IC50 (pIC50) was 6.96.
In the case of `O=C(COc1ccc(Cl)cc1)NC1CCN(C(=O)CCCc2ccc(Cl)cc2)CC1` [Example 37, 2-(4-chlorophenoxy)-N-(1-(4-(4-chlorophenyl)butanoyl)piperidin-4-yl)acetamide] it was 7.01.
In the case of `O=C(NCCOc1ccc(Cl)cc1)C1CCN(CCOc2ccc(Cl)cc2)CC1` [Example 39, N,1-bis(2-(4-chlorophenoxy)ethyl)piperidine-4-carboxamide] it was less than 6.00; in that of `O=C(NCCOc1ccc(Cl)cc1)C1CCN(CCCOc2ccc(Cl)cc2)CC1` [Example 40, N-(2-(4-chlorophenoxy)ethyl)-1-(3-(4-chlorophenoxy)propyl)piperidine-4-carboxamide], less than 6.00.
In the case of `O=C(COc1ccc(Cl)nc1)NC1CCN(CCCOc2ccc(Cl)cc2)CC1` [Example 43, N-(1-(3-(4-chlorophenoxy)propyl)piperidin-4-yl)-2-((6-chloropyridin-3-yl)oxy)acetamide] it was 7.23; in that of `O=C(COc1ccc(Cl)cc1)NCC1CCN(CCCOc2ccc(Cl)cc2)CC1` [Example 49, 2-(4-chlorophenoxy)-N-((1-(3-(4-chlorophenoxy)propyl)piperidin-4-yl)methyl)acetamide], less than 6.00; in that of `O=C(COc1ccc(Cl)cc1)NC1CCN(CCOc2ccc(Cl)cc2)CC1F` (centres unmarked) [Example 50, 2-(4-chlorophenoxy)-N-(1-(2-(4-chlorophenoxy)ethyl)-3-fluoropiperidin-4-yl)acetamide], 7.03.
Regarding `O=C(COc1ccc(C2CC2)cc1)NC1CCN(CCCOc2ccc(Cl)cc2)CC1` [Example 56, N-(1-(3-(4-chlorophenoxy)propyl)piperidin-4-yl)-2-(4-cyclopropylphenoxy)acetamide], the negative-log IC50 (pIC50) was less than 6.00.
As for `CN(C(=O)COc1ccc(Cl)cc1)C1CCN(CCCOc2ccc(Cl)cc2)CC1` [Example 57, 2-(4-chlorophenoxy)-N-(1-(3-(4-chlorophenoxy)propyl)piperidin-4-yl)-N-methylacetamide], the pIC50 was 7.21.
As for `O=C(COc1ccc(Cl)cc1)NC1CCN(CCCOc2ccc(Cl)cc2)C(C(=O)O)C1` (centres unmarked) [Example 59, 4-(2-(4-chlorophenoxy)acetamido)-1-(3-(4-chlorophenoxy)propyl)piperidine-2-carboxylic acid], the figure is 6.76.
